Measurements taken from ChEMBL document CHEMBL1152667, “Synthesis and radiopharmacological investigation of 3-[4'-[(18)F]fluorobenzylidene]indolin-2-one as possible tyrosine kinase inhibitor” (Bioorg Med Chem, 2009).

Key:
Testes = experiment: Biodistribution in Wistar rat testes at 1.7 MBq, iv administered as single dose measured after 1 min post-injection by gamma counting; assay type: ADME, organism-based, Testis; conditions: in vivo
Brain [1] = experiment: Biodistribution in Wistar rat brain at 1.7 MBq, iv administered as single dose measured after 5 mins post-injection by gamma counting; assay type: ADME, organism-based; conditions: in vivo
Adrenal gland [2] = experiment: Biodistribution in Wistar rat adrenal gland assessed as standard uptake value at 1.7 MBq, iv administered as single dose measured after 10 mins post-injection by gamma counting; assay type: ADME, organism-based; conditions: in vivo
[3] = Biodistribution in Wistar rat thyroid gland at 1.7 MBq, iv administered as single dose measured after 1 min post-injection by gamma counting; assay type: ADME, organism-based; conditions: in vivo
[4] = Ratio of drug level in pancreas to blood in Wistar rat at 1.7 MBq, iv administered as single dose measured after 5 mins post-injection; assay type: ADME, organism-based
Liver [5] = experiment: Biodistribution in Wistar rat liver assessed as standard uptake value at 1.7 MBq, iv administered as single dose measured after 5 mins post-injection by gamma counting; assay type: ADME, organism-based; conditions: in vivo
Kidney [6] = experiment: Biodistribution in Wistar rat kidney assessed as standard uptake value at 1.7 MBq, iv administered as single dose measured after 1 min post-injection by gamma counting; assay type: ADME, organism-based; conditions: in vivo
Kidney [7] = experiment: Biodistribution in Wistar rat kidney assessed as standard uptake value at 1.7 MBq, iv administered as single dose measured after 5 mins post-injection by gamma counting; assay type: ADME, organism-based; conditions: in vivo
Pancreas [8] = experiment: Biodistribution in Wistar rat pancreas assessed as standard uptake value at 1.7 MBq, iv administered as single dose measured after 1 min post-injection by gamma counting; assay type: ADME, organism-based; conditions: in vivo
Adrenal gland [9] = experiment: Biodistribution in Wistar rat adrenal gland assessed as standard uptake value at 1.7 MBq, iv administered as single dose measured after 60 mins post-injection by gamma counting; assay type: ADME, organism-based; conditions: in vivo, 1 h
[10] = Phase 2 elimination half life in Wistar rat at 30 MBq, iv by radio-HPLC analysis; assay type: ADME, organism-based; conditions: in vivo, read-out: beta t1/2 (converted)
Kidney [11] = experiment: Biodistribution in Wistar rat kidney assessed as standard uptake value at 1.7 MBq, iv administered as single dose measured after 60 mins post-injection by gamma counting; assay type: ADME, organism-based; conditions: in vivo, 1 h
Lung [12] = experiment: Biodistribution in Wistar rat lung at 1.7 MBq, iv administered as single dose measured after 30 mins post-injection by gamma counting; assay type: ADME, organism-based; conditions: in vivo, 0.5 h
Heart [13] = experiment: Biodistribution in Wistar rat heart assessed as standard uptake value at 1.7 MBq, iv administered as single dose measured after 30 mins post-injection by gamma counting; assay type: ADME, organism-based; conditions: in vivo, 0.5 h
Pancreas [14] = experiment: Biodistribution in Wistar rat pancreas at 1.7 MBq, iv administered as single dose measured after 10 mins post-injection by gamma counting; assay type: ADME, organism-based; conditions: in vivo
[15] = Biodistribution in Wistar rat thyroid gland at 1.7 MBq, iv administered as single dose measured after 10 mins post-injection by gamma counting; assay type: ADME, organism-based; conditions: in vivo
Kidney [16] = experiment: Biodistribution in Wistar rat kidney assessed as standard uptake value at 1.7 MBq, iv administered as single dose measured after 30 mins post-injection by gamma counting; assay type: ADME, organism-based; conditions: in vivo, 0.5 h
Blood = experiment: Biodistribution in Wistar rat blood assessed as standard uptake value at 1.7 MBq, iv administered as single dose measured after 30 mins post-injection by gamma counting; assay type: ADME, organism-based; conditions: in vivo, 0.5 h
[17] = Biodistribution in Wistar rat brown adipose tissue assessed as standard uptake value at 1.7 MBq, iv administered as single dose measured after 30 mins post-injection by gamma counting; assay type: ADME, organism-based; conditions: in vivo, 0.5 h
[18] = Biodistribution in Wistar rat adipose tissue assessed as standard uptake value at 1.7 MBq, iv administered as single dose measured after 30 mins post-injection by gamma counting; assay type: ADME, organism-based; conditions: in vivo, 0.5 h
[19] = Biodistribution in Wistar rat hair/skin assessed as standard uptake value at 1.7 MBq, iv administered as single dose measured after 60 mins post-injection by gamma counting; assay type: ADME, organism-based; conditions: in vivo, 1 h
Heart [20] = experiment: Biodistribution in Wistar rat heart at 1.7 MBq, iv administered as single dose measured after 30 mins post-injection by gamma counting; assay type: ADME, organism-based; conditions: in vivo, 0.5 h
Spleen [21] = experiment: Biodistribution in Wistar rat spleen assessed as standard uptake value at 1.7 MBq, iv administered as single dose measured after 30 mins post-injection by gamma counting; assay type: ADME, organism-based; conditions: in vivo, 0.5 h
Muscle tissue = experiment: Biodistribution in Wistar rat muscle assessed as standard uptake value at 1.7 MBq, iv administered as single dose measured after 1 min post-injection by gamma counting; assay type: ADME, organism-based; conditions: in vivo
Pancreas [22] = experiment: Biodistribution in Wistar rat pancreas assessed as standard uptake value at 1.7 MBq, iv administered as single dose measured after 30 mins post-injection by gamma counting; assay type: ADME, organism-based; conditions: in vivo, 0.5 h
Brain [23] = experiment: Biodistribution in Wistar rat brain at 1.7 MBq, iv administered as single dose measured after 1 min post-injection by gamma counting; assay type: ADME, organism-based; conditions: in vivo
Liver [24] = experiment: Biodistribution in Wistar rat liver assessed as standard uptake value at 1.7 MBq, iv administered as single dose measured after 1 min post-injection by gamma counting; assay type: ADME, organism-based; conditions: in vivo
Mus musculus = experiment: Metabolic stability in mouse at 11 MBq, iv after 45 mins by radio-HPLC analysis; assay type: ADME, organism-based; conditions: in vivo, 0.75 h
Pancreas [25] = experiment: Biodistribution in Wistar rat pancreas at 1.7 MBq, iv administered as single dose measured after 60 mins post-injection by gamma counting; assay type: ADME, organism-based; conditions: in vivo, 1 h
Thymus [26] = experiment: Biodistribution in Wistar rat thymus at 1.7 MBq, iv administered as single dose measured after 1 min post-injection by gamma counting; assay type: ADME, organism-based; conditions: in vivo
Femur = experiment: Biodistribution in Wistar rat femur at 1.7 MBq, iv administered as single dose measured after 30 mins post-injection by gamma counting; assay type: ADME, organism-based; conditions: in vivo, 0.5 h
Kidney [27] = experiment: Biodistribution in Wistar rat kidney at 1.7 MBq, iv administered as single dose measured after 60 mins post-injection by gamma counting; assay type: ADME, organism-based; conditions: in vivo, 1 h
[28] = Ratio of drug level in brown adipose tissue to blood in Wistar rat at 1.7 MBq, iv administered as single dose measured after 5 mins post-injection; assay type: ADME, organism-based
Lung [29] = experiment: Biodistribution in Wistar rat lung assessed as standard uptake value at 1.7 MBq, iv administered as single dose measured after 10 mins post-injection by gamma counting; assay type: ADME, organism-based; conditions: in vivo
Adrenal gland [30] = experiment: Biodistribution in Wistar rat adrenal gland at 1.7 MBq, iv administered as single dose measured after 10 mins post-injection by gamma counting; assay type: ADME, organism-based; conditions: in vivo
Spleen [31] = experiment: Biodistribution in Wistar rat spleen assessed as standard uptake value at 1.7 MBq, iv administered as single dose measured after 1 min post-injection by gamma counting; assay type: ADME, organism-based; conditions: in vivo
Harderian gland = experiment: Biodistribution in Wistar rat harderian gland assessed as standard uptake value at 1.7 MBq, iv administered as single dose measured after 60 mins post-injection by gamma counting; assay type: ADME, organism-based; conditions: in vivo, 1 h
Intestine = experiment: Biodistribution in Wistar rat intestine at 1.7 MBq, iv administered as single dose measured after 5 mins post-injection by gamma counting; assay type: ADME, organism-based; conditions: in vivo
Spleen [32] = experiment: Biodistribution in Wistar rat spleen at 1.7 MBq, iv administered as single dose measured after 10 mins post-injection by gamma counting; assay type: ADME, organism-based; conditions: in vivo
Thymus [33] = experiment: Biodistribution in Wistar rat thymus assessed as standard uptake value at 1.7 MBq, iv administered as single dose measured after 1 min post-injection by gamma counting; assay type: ADME, organism-based; conditions: in vivo
[34] = Metabolic stability in Wistar rat blood assessed as compound remaining at 30 MBq, iv after 5 mins by radio-HPLC analysis; assay type: ADME, organism-based; conditions: read-out: Stability
[35] = Biodistribution in Wistar rat hair/skin assessed as standard uptake value at 1.7 MBq, iv administered as single dose measured after 10 mins post-injection by gamma counting; assay type: ADME, organism-based; conditions: in vivo

Structure (SMILES): O=C1Nc2ccccc2/C1=C/c1ccc([18F])cc1
- Drug uptake (Testes): 0 %ID
- Drug uptake (Brain [1]): 1.87 %ID
- SUV (Adrenal gland [2]): 3.2%
- Drug uptake [3]: 0.09 %ID
- Kp at 5 min [4]: 3
- SUV (Liver [5]): 3.74%
- SUV (Kidney [6]): 3.36%
- SUV (Kidney [7]): 2.64%
- SUV (Pancreas [8]): 2.4%
- SUV (Adrenal gland [9]): 1.11%
- half-life [10]: 4.45 min
- SUV (Kidney [11]): 0.99%
- Drug uptake (Lung [12]): 0.33 %ID
- SUV (Heart [13]): 0.44%
- Drug uptake (Pancreas [14]): 0.28 %ID
- Drug uptake [15]: 0.05 %ID
- SUV (Kidney [16]): 1.69%
- SUV (Blood): 0.27%
- SUV [17]: 0.98%
- SUV [18]: 1.17%
- SUV [19]: 0.19%
- Drug uptake (Heart [20]): 0.18 %ID
- SUV (Spleen [21]): 0.28%
- SUV (Muscle tissue): 0.82%
- SUV (Pancreas [22]): 0.55%
- Drug uptake (Brain [23]): 3.09 %ID
- SUV (Liver [24]): 2.98%
- Stability (Mus musculus): Unstable
- Drug uptake (Pancreas [25]): 0.07 %ID
- Drug uptake (Thymus [26]): 0.5 %ID
- Drug uptake (Femur): 0.13 %ID
- Drug uptake (Kidney [27]): 0.91 %ID
- Kp at 5 min [28]: 4.1
- SUV (Lung [29]): 0.85%
- Drug uptake (Adrenal gland [30]): 0.1 %ID
- SUV (Spleen [31]): 0.98%
- SUV (Harderian gland): 0.46%
- Drug uptake (Intestine): 13.96 %ID
- Drug uptake (Spleen [32]): 0.14 %ID
- SUV (Thymus [33]): 1.1%
- remaining at 5 min [34]: 40%
- SUV [35]: 0.74%
